Data set [1] deals with TOP2A promoter. As to the kind of experiment: Binding affinity to 5'-AACGTT-3' DNA (unknown origin) at 1 uM by DNase1 footprinting based Autoradiogram analysis. In kind it is nucleic-acid assay.
Data set [2] deals with TOP2A promoter. Nature of the data set: Binding affinity to 5'-AACGTT-3' DNA (unknown origin) at 0.5 uM by DNase1 footprinting based Autoradiogram analysis. In kind it is nucleic-acid assay.
Data set [3] in a line: Drug uptake in mouse NIH3T3 cells assessed as fluorescence in mitochondria upto 20 uM incubated for 24 hrs under dark condition by mito-tracker red dye based confocal microscopic analysis. Particulars: nih3t3, 24 h. In kind it is ADME.
Data set [4] is described as follows: Induction of TOP2A mRNA expression in human A549 cells assessed as fold increase in mRNA expression at 2 uM incubated for 18 hrs by real time PCR analysis. In kind it is cell-based.
A short description of data set [5]: Drug uptake in mouse NIH3T3 cells assessed as increase in fluorescence intensity at 1 uM after 24 hr by confocal microscopic analysis relative to control. Type of data set: ADME, cell-based. Particulars: nih3t3, 24 h.
Data set [6] can be described thus: Drug uptake in mouse NIH3T3 cells assessed as increase in fluorescence intensity at 10 uM after 24 hr by confocal microscopic analysis relative to control. In kind it is ADME, cell-based. Particulars: nih3t3, 24 h.
The nature of data set [7]: Drug uptake in mouse NIH3T3 cells assessed as increase in fluorescence intensity at 20 uM after 24 hr by confocal microscopic analysis relative to control. Type of data set: ADME, cell-based. Particulars: nih3t3, 24 h.
Data set [8] has as its system TOP2A promoter. Nature of the data set: Inhibition of 5'-TACGAT-3 (unknown origin) binding to 32P-radiolabeled DNA ICB2 -binding site (unknown origin) assessed as disruption NF-Y/ICB2 interaction using NIH3T3 cell nuclear protein extract incubated for 1 hr by electrophoretic mobility shift assay.
The subject of data set [9] is TOP2A promoter. As to the kind of experiment: Binding affinity to 5'-AACGTT-3' DNA (unknown origin) at 3 uM by DNase1 footprinting based Autoradiogram analysis. Type of data set: nucleic-acid assay.
Data set [10] concerns TOP2A promoter. Nature of the data set: Binding affinity to 5'-AACGTT-3' DNA promoter TOP2A (unknown origin) at 3 uM by DNase1 footprinting based Autoradiogram analysis. Type of data set: nucleic-acid assay.
Data set [11] in a line: Drug uptake in mouse NIH3T3 cells assessed as fluorescence in nucleus upto 20 uM incubated for 24 hrs under dark condition by mito-tracker dye based confocal microscopic analysis. Particulars: nih3t3, 24 h. Type of data set: ADME, cell-based.
Data set [12] has as its system TOP2A promoter. As to the kind of experiment: Inhibition of 5'-TACGAT-3 (unknown origin) binding to 32P-radiolabeled DNA ICB2 -binding site (unknown origin) assessed as disruption NF-Y/ICB2 interaction using NIH3T3 cell nuclear protein extract at >= 1 uM incubated for 1 hr by electrophoretic mobility shift assay. Particulars: dose microM >=1, time 1.0 hrs.
For data set [13], the system named is TOP2A promoter. As to the kind of experiment: Inhibition of 5'-TACGAT-3 (unknown origin) binding to 32P-radiolabeled DNA ICB2 -binding site (unknown origin) assessed as disruption NF-Y/ICB2 interaction using NIH3T3 cell nuclear protein extract at >= 3 uM incubated for 1 hr by electrophoretic mobility shift assay. Particulars: dose microM >=3, time 1.0 hrs. In general terms: Mobility shift assays separate free from complexed probe on a gel.

Data set [14] relates to DNA. As to the kind of experiment: Binding affinity to DNA at 5'-AAGCTT-3' site (unknown origin) assessed as protection of the site from enzyme digestion at 5 uM by DNase1 footprinting based autoradiogram analysis. Type of data set: nucleic-acid assay.
Data set [15] concerns DNA. Nature of the data set: Binding affinity to DNA at 5'-ACGGGT-3' site (unknown origin) assessed as protection of the site from enzyme digestion at 5 uM by DNase1 footprinting based autoradiogram analysis. Type of data set: nucleic-acid assay.
Data set [16] has as its system DNA. As to the kind of experiment: Binding affinity to DNA at 5'-ACGCGT-3' (unknown origin) upto 25 uM by DNase1 footprinting based autoradiogram analysis. Type of data set: nucleic-acid assay. Particulars: dose microM <=25.
For data set [17], the system named is DNA. Nature of the data set: Binding affinity to DNA at 5'-ACCGGT-3' (unknown origin) upto 25 uM by DNase1 footprinting based autoradiogram analysis. In kind it is nucleic-acid assay. Particulars: dose microM <=25.
Data set [18] deals with DNA. Nature of the data set: Binding affinity to DNA at 5'-AAATTT-3' (unknown origin) upto 25 uM by DNase1 footprinting based autoradiogram analysis. In kind it is nucleic-acid assay. Particulars: dose microM <=25.
Data set [19] relates to DNA. As to the kind of experiment: Binding affinity to DNA at 5'-ACTAGT-3' (unknown origin) upto 25 uM by DNase1 footprinting based autoradiogram analysis. In kind it is nucleic-acid assay. Particulars: dose microM <=25.
In data set [20] the test system is DNA. Nature of the data set: Binding affinity to DNA at 5'-AAGCTT-3' (unknown origin) upto 25 uM by DNase1 footprinting based autoradiogram analysis. Type of data set: nucleic-acid assay. Particulars: dose microM <=25.
Data set [21] concerns DNA. Nature of the data set: Binding affinity to DNA at 5'-ACGGGT-3' (unknown origin) upto 25 uM by DNase1 footprinting based autoradiogram analysis. In kind it is nucleic-acid assay. Particulars: dose microM <=25.
Data set [22] has as its system TOP2A promoter. Nature of the data set: Binding affinity to 5'-AACGTT-3' DNA (unknown origin) at 10 uM by DNase1 footprinting based Autoradiogram analysis. Type of data set: nucleic-acid assay.

Here are results for six compounds from ChEMBL document CHEMBL4811285, “Effects of N-terminus modified Hx-amides on DNA binding affinity, sequence specificity, cellular uptake, and gene expression” (Bioorg Med Chem Lett, 2021).

Calls of active or inactive are those of the source. The calls are words filed in the database; no cut-off is given here.

As for `CN(C)CCCNC(=O)c1cc(NC(=O)c2nc(NC(=O)c3ccc4nc(-c5ccncc5)[nH]c4c3)cn2C)cn1C`, the result in the data set with TOP2A promoter [1] and in the data set with TOP2A promoter [2] was Active. Besides, the Drug uptake result in data set [3] is “Active”. Also, the Activity entry in data set [4] (human, a549, 18 h, 2 µM) is recorded as “Not Active”. Moreover, the Flu intensity in [5] turned out to be 1.29; in data set [6], 1.49; in data set [7] it was 1.6. The inhibition entry in the data set with TOP2A promoter [8] was “Dose-Dependent Effect”.
Consider `CN(C)CCCNC(=O)c1cc(NC(=O)c2nc(NC(=O)c3ccc4nc(-c5ccc(F)cc5)[nH]c4c3)cn2C)cn1C`, for which the result in the data set with TOP2A promoter [9] and in the data set on TOP2A promoter [10] was Active. Moreover, in data set [11], the Drug uptake result is listed as “Active”. In [4] (Homo sapiens, A549, read-out: FC), the fold induction at 2 µM came out at 1.7. The figures for the Flu intensity in data set [5], in data set [6] and in data set [7] were 1.12, 6.08 and 15.01, respectively. Besides, in the data set with TOP2A promoter [12], the inhibition entry is “Active”.
As for `CN(C)CCCNC(=O)c1cc(NC(=O)c2nc(NC(=O)c3ccc4nc(-c5ccco5)[nH]c4c3)cn2C)cn1C`, in the data set on TOP2A promoter [13], the inhibition result was “Active”.
On to `COc1ccc(-c2nc3ccc(C(=O)Nc4cn(C)c(C(=O)Nc5cc(C(=O)NCCCN(C)C)n(C)c5)n4)cc3[nH]2)cc1`, for which the outcome in the data set on TOP2A promoter [9], in the data set with DNA [14] and in the data set with DNA [15] was Active. In addition, the values for the Flu intensity in data set [5], in data set [6] and in data set [7] were 2.75, 13.96 and 32.03, respectively. Further, the result with DNA [16], in the data set on DNA [17], in the data set on DNA [18], in the data set with DNA [19], with DNA [20] and with DNA [21] was inactive. In addition, the result in the data set with TOP2A promoter [22] was inactive.
Regarding `COc1ccc(-c2nc3ccc(C(=O)Nc4cn(C)c(C(=O)Nc5cc(C(=O)NCCCN(C)C)n(C)c5)n4)cc3[nH]2)cn1`, the inhibition entry in the data set on TOP2A promoter [13] is “Active”.
Still for that read-out and setting: the result for `CN(C)CCCNC(=O)c1cc(NC(=O)c2nc(NC(=O)c3ccc4nc(-c5cc6ccccc6o5)[nH]c4c3)cn2C)cn1C` reads “Active”.
